The subject of test [1] is Cytoxan/Adriamycin-induced alopecia. The test is described as follows: Cytoxan/Adriamycin combination-induced alopecia in young rats. The settings on record: 0.2 μg in 0.15 ml absolute ethanol topically over head and neck, pretreatment; 11 rats per group. In kind it is in vivo, rat. How it is done: Eight 4-day old Sprague Dawley rats were randomized in two groups of 4 rats each. Group I, received EGF […] s.c. on the head daily for 7 days. Group II received buffer injections and served as controls. One day after stopping EGF or buffer injections all rats received Cytoxan 25 mg/kg i.p.×1 day and Adriamycin 2.5 mg/kg i.p.×3 days. […] (FIG. 5).
(§1) 1,25-Dihydroxyvitamin D3 was dissolved in absolute ethanol and applied topically with an applicator. Control animals were similarly treated with the same amount of ethanol. Animals were then kept individually separated for a period of three hours following which the treated area was carefully washed with soap and water and dried. Treatment was given daily beginning on day 5 after birth and ending on day 10.
All chemotherapies were given I.P. and started at 11 days of age. CTX, 35 mg/kg, was given for one day only. VP-16, 1.5 mg/kg, was given for three days. For CTX and ADM combination, CTX, 25 mg/kg was given for one day and ADM, 2.5 mg/kg, for three days. […] Alopecia was recorded on the tenth day from beginning chemotherapy.
A total of 4 experiments were carried out. In the first experiment, protection from Cytoxan-induced alopecia was examined. The experimental group was pretreated with 0.2 μg of 1,25-dihydroxyvitamin D3 in 0.15 ml of absolute ethanol applied topically over the head and neck and the control group received 0.15 ml of alcohol. […] The second experiment was carried out under similar conditions to examine protection from VP-16-induced alopecia. […] The third experiment was designed to examine protection from alopecia induced by Cytoxan-Adriamycin combination. There were 11 rats in each group. […] In the fourth experiment, protection from VP-16-induced alopecia was similarly examined except that the dose of 1,25-dihydroxyvitamin D3 was reduced to 0.1 μg in 0.1 ml absolute ethanol applied topically over the head area only.

The test system of another test is VP-16-induced alopecia. The test is described as follows: VP-16 (Etoposide)-induced alopecia in young rats. In kind it is in vivo, rat. As to the method:
Twelve 7 day old rats were randomized in two groups. Group I was treated daily with buffer 0.1 ml s.c. for four days. The second Group was treated daily with Vitamin D3 50 μg s.c. over head for four days. After stopping the buffer or Vitamin D3 treatment, all rats received 1.5 mg/kg i.p. of VP-16 (Etoposide) daily for three days.
as §1
All chemotherapies were given I.P. and started at 11 days of age. CTX, 35 mg/kg, was given for one day only. VP-16, 1.5 mg/kg, was given for three days. For CTX and ADM combination, CTX, 25 mg/kg was given for one day and ADM, 2.5 mg/kg, for three days. At these doses neither CTX nor ADM alone will produce alopecia. Alopecia was recorded on the tenth day from beginning chemotherapy.
A total of 4 experiments were carried out. In the first experiment, protection from Cytoxan-induced alopecia was examined. The experimental group was pretreated with 0.2 μg of 1,25-dihydroxyvitamin D3 in 0.15 ml of absolute ethanol applied topically over the head and neck and the control group received 0.15 ml of alcohol. All 10 rats in the control group became totally alopecic. […] The second experiment was carried out under similar conditions to examine protection from VP-16-induced alopecia. All 10 rats in the control group developed total body alopecia. […] The third experiment was designed to examine protection from alopecia induced by Cytoxan-Adriamycin combination. There were 11 rats in each group. Six rats in the control group developed alopecia over the head and neck and 5 rats developed total body alopecia. […] In the fourth experiment, protection from VP-16-induced alopecia was similarly examined except that the dose of 1,25-dihydroxyvitamin D3 was reduced to 0.1 μg in 0.1 ml absolute ethanol applied topically over the head area only. All 10 rats in the control group became completely alopecic.
RO 23-7553 (1,25 dihydroxy-16-ene-23-yne-cholecalciferol) was dissolved in absolute ethanol and applied topically with an applicator. Control animals were similarly treated with the same amount of ethanol. Animals were then kept individually separated for a period of three hours following which the treated area was carefully washed with soap and water and dried. Treatment was given daily beginning on day 9 after birth and ending on day 14.
On day 15 all animals received VP-16, 1.5 mg/kg i.p., for three days. Alopecia was recorded on day 25.
Thirteen rats were randomized in two groups. Experimental group, 7 rats; control group, 6 rats. The experimental group was pretreated with 1 μg of RO 23-7553 in 0.2 ml absolute ethanol applied topically over the neck and back and the control group received 0.2 ml of absolute ethanol. All six rats in the control group became totally alopecic over the neck and back.

The next test concerns Cytoxan-induced alopecia. Nature of the test: Cytoxan-induced alopecia in young rats. In kind it is in vivo, rat. The settings on record: 0.2 μg in 0.15 ml absolute ethanol topically over head and neck, pretreatment; CTX 35 mg/kg one day.
For test [2], the system named is hair growth. Nature of the test: Stimulation of hair regrowth on shaven backs of rats. In kind it is in vivo, rat. As to the method:
The backs of nineteen 25 day old Sprague Dawley rats were shaven and randomized in two groups.
Group I (control 10 rats) received 0.1 ml of ethanol applied topically once daily to the shaven area for 14 days.
Group II (Calcitriol 9 rats) received 50 ng of 1,25-dihydroxyvitamin D3 in 0.1 ml of ethanol applied topically once daily to the shaven area for 14 days.
On day 15 stimulation of hair regrowth was assessed by reshaving an area 6 cm×6 cm in diameter. The hair was collected and weighed. The difference between two groups was highly statistically significant. P. value 0.003 (see Table III and FIG. 11).

Test [3] concerns hair growth. Described as above. In kind it is in vivo, rat. The settings on record: noted in rats during the chemotherapy-induced alopecia studies.
For test [4], the system named is EGF receptors on breast cancer cells. The settings on record: literature; cited from earlier work.
Test [5] deals with EGF receptors on a cell line established from rat calvaria. The note with it: literature; cited from earlier work.

The source of these data is US20020035097A1, “Method of preventing and treating chemotherapy-induced alopecia” (priority 1991, published 2002).

Values joined by “and” are separate entries in the source; they are usually repeats but may differ in a detail not shown here. Equal entries are not always repeated. “Also recorded” adds a separate entry of the source.

Consider `C=C1/C(=C\C=C2/CCC[C@]3(C)[C@@H]([C@H](C)CCCC(C)(C)O)CC[C@@H]23)C[C@@H](O)C[C@@H]1O` [1,25-dihydroxyvitamin D3], for which the “Protection from alopecia induced by Cytoxan-Adriamycin combination” value in test [1] is reported as “all rats in the experimental group were protected”. In addition, the “Protection from VP-16-induced alopecia” value in the test on VP-16-induced alopecia (0.1 μg in 0.1 ml absolute ethanol topically over the head area only, pretreatment, VP-16 1.5 mg/kg for three days) is “protected primarily at the site of 1,25-dihydroxyvitamin D3 application; also recorded: less generalized and was more limited to the site of application”; in the test on VP-16-induced alopecia (0.2 μg in 0.15 ml absolute ethanol topically over head and neck, pretreatment, VP-16 1.5 mg/kg for three days), “all rats in the experimental group were protected”; in the test with VP-16-induced alopecia (applied topically 0.5 μg daily in 50% ethanol or DMSO), “protected”. Further, in the test on VP-16-induced alopecia (0.2 μg topically over head and neck, stated for the CTX, VP-16 and CTX+ADM experiments together), the Extent of protection result was “not limited to the site of application but involved the entire body”. In addition, the “Protection from Cytoxan-induced alopecia” value with Cytoxan-induced alopecia is given as “all animals in the experimental group were protected”. Further, the “Hair Weight, Mean S.E.M.” value in the test with hair growth [2] (50 ng in 0.1 ml ethanol topically once daily for 14 days, 9 rats, day 15, P value 0.003 vs control) is 164 ± 13 Mg. In the test with hair growth [2] (50 ng in 0.1 ml ethanol topically once daily to shaven area for 14 days, 6 cm×6 cm area reshaved on day 15, listed as Calcitriol), the “Hair Weight (individual rats)” value is 130 Mg and 177 Mg and 140 Mg and 147 Mg and 135 Mg and 202 Mg and 143 Mg and 150 Mg and 253 Mg. Besides, in the test on hair growth [2] (administered topically in the rat), the “Effect on hair growth” value is “stimulation of hair growth”. The “Coat and hair in the treated area” value in the test on hair growth [3] is “better coat of hair and longer hair in the treated area”. Further, the “Effect on EGF receptors” value in test [4] and in test [5] was “increase EGF receptors” throughout.
